Results as given in ChEMBL document CHEMBL1137795, “Bioactive compounds from aquatic and terrestrial sources” (J Nat Prod, 1990).
Converted amounts (≈) assume the structure as drawn. The source made the active and inactive calls. The calls are words filed in the database; no cut-off is given here. Numbered stars: 1 amine (or outer) side, 2 acyl side, 3 side chain; on linkers, the order of the positions; unused ones are H or OH. Bridge positions count the residues as written; N and C are the ends. Square brackets hold non-standard residues; d marks the D form. Peptide text beside a SMILES is read from it. X1 = CC[C@H](C)[C@@H](N[*:1])[C@@H](O)CC(=O)O[C@H](C(=O)[C@H](C)C(=O)[*:2])C(C)C; NMeY = CN[C@@H](Cc1ccc(O)cc1)C(=O)O; dNMeL = CN[C@H](CC(C)C)C(=O)O; Lac = C[C@H](O)C(=O)O

Assays:
L1210 = experiment: Cytotoxicity against mouse L1210 cells; format: functional, cell-based
P388 [1] = experiment: In vivo antitumor activity against mouse P388 cells at 3.8 ug/kg relative to control; format: functional
B16 = experiment: In vivo antitumor activity against mouse B16 cells at 10 ug/kg relative to control; format: functional
[2] = test system: Vesicular stomatitis virus; experiment: Antiviral activity against VSV assessed as reduction in plaque formation at 30 ng; format: functional, organism-based
Human alphaherpesvirus 1 [3] = experiment: Antiviral activity against HSV1 assessed as reduction in plaque formation at 30 ng; format: functional, organism-based
[4] = test system: Vesicular stomatitis virus; experiment: Antiviral activity against VSV assessed as reduction in plaque formation at 100 ng; format: functional, organism-based
[5] = test system: Vesicular stomatitis virus; experiment: Antiviral activity against VSV assessed as reduction in plaque formation at 100 ug; format: functional, organism-based
P388 [6] = experiment: In vivo antitumor activity against mouse P388 cells at 250 ug/kg relative to control; format: functional
Human alphaherpesvirus 1 [7] = experiment: Antiviral activity against HSV1 assessed as reduction in plaque formation at 100 ug; format: functional, organism-based
Human alphaherpesvirus 1 [8] = experiment: Antiviral activity against HSV1 assessed as reduction in plaque formation at 10 ug; format: functional, organism-based
P388 [9] = experiment: In vivo antitumor activity against mouse P388 cells at 15 ug/kg relative to control; format: functional
Human alphaherpesvirus 1 [10] = experiment: Antiviral activity against HSV1 assessed as reduction in plaque formation at 780 ng; format: functional, organism-based
Human alphaherpesvirus 1 [11] = experiment: Antiviral activity against HSV1 assessed as reduction in plaque formation at 20 ng; format: functional, organism-based
[12] = test system: Vesicular stomatitis virus; experiment: Antiviral activity against VSV assessed as reduction in plaque formation at 20 ng; format: functional, organism-based

SMILES: CC[C@H](C)[C@@H]1NC(=O)[C@@H](NC(=O)[C@@H](CC(C)C)N(C)C=O)[C@@H](C)OC(=O)[C@H](Cc2ccc(OC)cc2)N(C)C(=O)[C@@H]2CCCN2C(=O)[C@H](CC(C)C)NC(=O)[C@@H](C)C(=O)[C@H](C(C)C)OC(=O)C[C@@H]1O [DIDEMNIN G]
- IC50 (L1210): 6 ng/mL (≈ 6.18 nM)

SMILES: CC[C@H](C)[C@H]1NC(=O)[C@@H](NC(=O)[C@@H](CC(C)C)NC)[C@@H](C)OC(=O)[C@H](Cc2ccc(OC)cc2)N(C)C(=O)[C@@H]2CCCN2C(=O)[C@H](CC(C)C)NC(=O)[C@@H](C)C(=O)[C@H](C(C)C)OC(=O)C[C@@H]1O [DIDEMNIN A] (H-[dNMeL]T[X1]LP[NMeY](Me); ester 2-C)
- IC50 (L1210): 14 ng/mL (≈ 14.8 nM)

SMILES: COc1cc2c(cc1O)CCN[C@]21CS[C@@H]2c3c(OC(C)=O)c(C)c4c(c3[C@H](COC1=O)N1[C@@H]2[C@@H]2N[C@@H](Cc3cc(C)c(OC)c(O)c32)[C@@H]1O)OCO4 [ECTEINASCIDIN 729]
- T/C (P388 [1]): 214%
- T/C (B16): 246%

SMILES: CCC(=O)O[C@@H]1C[C@@]2(O)CC[C@@H]3[C@H]([C@H](O)C(=O)[C@]4(C)[C@@H](c5ccc(=O)oc5)CC[C@]34O)[C@@]2(C)C[C@@H]1OC(C)=O
- Activity [2]: inactive
- Activity (Human alphaherpesvirus 1 [3]): inactive
- Activity [4]: inactive

SMILES: CC[C@H](C)[C@H]1NC(=O)[C@@H](NC(=O)[C@@H](CC(C)C)N(C)C(=O)[C@H](C)O)[C@@H](C)OC(=O)[C@H](Cc2ccc(OC)cc2)N(C)C(=O)[C@@H]2CCCN2C(=O)[C@H](CC(C)C)NC(=O)[C@@H](C)C(=O)[C@H](C(C)C)OC(=O)C[C@@H]1O [DIDEMNIN C] (H-[Lac][dNMeL]T[X1]LP[NMeY](Me); ester 3-C)
- IC50 (L1210): 11 ng/mL (≈ 10.8 nM)

SMILES: NC(=O)c1ncn([C@@H]2O[C@H](CO)[C@@H](O)[C@H]2O)n1
- Activity [5]: Active

SMILES: CCCCCCC[C@@H](O)CC(=O)N[C@@H](CCC(N)=O)C(=O)N[C@@H](CCC(N)=O)C(=O)N[C@@H](CCC(=O)O)C(=O)O[C@@H](C)C(=O)N1CCC[C@H]1C(=O)N(C)[C@H](CC(C)C)C(=O)N[C@@H]1C(=O)N[C@@H]([C@@H](C)CC)[C@@H](O)CC(=O)O[C@@H](C(C)C)C(=O)[C@H](C)C(=O)N[C@@H](CC(C)C)C(=O)N2CCC[C@H]2C(=O)N(C)[C@@H](Cc2ccc(OC)cc2)C(=O)O[C@@H]1C [DIDEMNIN X]
- IC50 (L1210): 4.4 ng/mL (≈ 2.64 nM)

SMILES: CC[C@H](C)[C@@H]1NC(=O)[C@@H](N2CN(C)[C@H](CC(C)C)C2=O)[C@@H](C)OC(=O)[C@H](Cc2ccc(OC)cc2)N(C)C(=O)[C@@H]2CCCN2C(=O)[C@H](CC(C)C)NC(=O)[C@@H](C)C(=O)[C@H](C(C)C)OC(=O)C[C@@H]1O [METHYLENE DIDEMNIN A]
- IC50 (L1210): 6.5 ng/mL (≈ 6.8 nM)

SMILES: COc1cc2c(cc1O)CCN[C@]21CS[C@@H]2c3c(OC(C)=O)c(C)c4c(c3[C@H](COC1=O)N1C[C@@H]3Cc5cc(C)c(OC)c(O)c5[C@H]([C@H]21)N3C)OCO4 [ECTEINASCIDIN 745]
- IC50 (L1210): 88 ng/mL (≈ 118 nM)
- T/C (P388 [6]): 111%

SMILES: CC(=O)O[C@H]1C[C@]2(C)[C@H]3[C@H](O)C(=O)[C@]4(C)[C@@H](c5ccc(=O)oc5)CC[C@]4(O)[C@@H]3CC[C@]2(O)C[C@H]1OC(=O)C(C)C
- Activity [2]: inactive
- Activity (Human alphaherpesvirus 1 [3]): inactive

SMILES: CCCCCCC[C@@H](O)CC(=O)N[C@@H](CCC(N)=O)C(=O)N[C@@H](CCC(N)=O)C(=O)N[C@@H](CCC(N)=O)C(=O)N[C@@H](CCC(=O)O)C(=O)O[C@@H](C)C(=O)N1CCC[C@H]1C(=O)N(C)[C@H](CC(C)C)C(=O)N[C@@H]1C(=O)N[C@@H]([C@@H](C)CC)[C@@H](O)CC(=O)O[C@@H](C(C)C)C(=O)[C@H](C)C(=O)N[C@@H](CC(C)C)C(=O)N2CCC[C@H]2C(=O)N(C)[C@@H](Cc2ccc(OC)cc2)C(=O)O[C@@H]1C [DIDEMNIN Y]
- IC50 (L1210): 5.6 ng/mL (≈ 3.12 nM)

SMILES: CC[C@H](C)[C@@H]1NC(=O)[C@@H](NC(=O)[C@@H](CC(C)C)N(C)C(=O)[C@@H]2CCCN2C(=O)[C@H](C)OC(=O)[C@H](CCC(=O)O)NC(=O)[C@H](CCC(N)=O)NC(=O)[C@H](CCC(N)=O)NC(=O)[C@@H](N)CCC(N)=O)[C@@H](C)OC(=O)[C@H](Cc2ccc(OC)cc2)N(C)C(=O)[C@@H]2CCCN2C(=O)[C@H](CC(C)C)NC(=O)[C@@H](C)C(=O)[C@H](C(C)C)OC(=O)C[C@@H]1O [DIDEMNIN D]
- IC50 (L1210): 5 ng/mL (≈ 3.08 nM)

SMILES: CC(=O)O[C@H]1C[C@]2(C)[C@H]3[C@H](O)C(=O)[C@]4(C)[C@@H](c5ccc(=O)oc5)CC[C@]4(O)[C@@H]3CC[C@]2(O)C[C@H]1O
- Activity [4]: inactive

SMILES: Nc1ncnc2c1ncn2[C@@H]1O[C@H](CO)[C@@H](O)[C@@H]1O
- Activity (Human alphaherpesvirus 1 [7]): Active
- Activity (Human alphaherpesvirus 1 [8]): inactive

SMILES: CC[C@H](C)[C@@H]1NC(=O)[C@@H](NC(=O)[C@@H](CC(C)C)N(C)C(C)=O)[C@@H](C)OC(=O)[C@H](Cc2ccc(OC)cc2)N(C)C(=O)[C@@H]2CCCN2C(=O)[C@H](CC(C)C)NC(=O)[C@@H](C)C(=O)[C@H](C(C)C)OC(=O)C[C@@H]1O [N-ACETYLDIDEMNIN A]
- IC50 (L1210): 2.4 ng/mL (≈ 2.44 nM)

SMILES: CC[C@H](C)[C@@H]1NC(=O)[C@@H](NC(=O)[C@@H](CC(C)C)N(C)C(=O)[C@@H]2CCCN2C(=O)[C@H](C)OC(C)=O)[C@@H](C)OC(=O)[C@H](Cc2ccc(OC)cc2)N(C)C(=O)[C@@H]2CCCN2C(=O)[C@H](CC(C)C)NC(=O)[C@@H](C)C(=O)[C@H](C(C)C)OC(=O)C[C@@H]1OC(C)=O
- IC50 (L1210): 1.6 ng/mL (≈ 1.34 nM)

SMILES: COc1cc2c(cc1O)CCN[C@]21CS[C@@H]2c3c(OC(C)=O)c(C)c4c(c3[C@H](COC1=O)N1[C@@H]2[C@H]2c3c(cc(C)c(OC)c3O)C[C@@H]([C@@H]1O)N2C)OCO4 [TRABECTEDIN]
- IC50 (L1210): 0.5 ng/mL (≈ 0.656 nM)
- T/C (P388 [9]): 167%

SMILES: CC[C@H](C)[C@@H]1NC(=O)[C@@H](NC(=O)[C@@H](CC(C)C)N(C)C(C)=O)[C@@H](C)OC(=O)[C@H](Cc2ccc(OC)cc2)N(C)C(=O)[C@@H]2CCCN2C(=O)[C@H](CC(C)C)NC(=O)[C@@H](C)C(=O)[C@H](C(C)C)OC(=O)C[C@@H]1OC(C)=O [N,O-DIACETYLDIDEMNIN A]
- IC50 (L1210): 15 ng/mL (≈ 14.6 nM)

SMILES: Nc1nc2c(ncn2COCCO)c(=O)[nH]1
- Activity (Human alphaherpesvirus 1 [7]): Active
- Activity (Human alphaherpesvirus 1 [8]): Active

SMILES: CC(=O)O[C@H]1C[C@]2(C)[C@H]3[C@H](O)C(=O)[C@]4(C)[C@@H](c5ccc(=O)oc5)CC[C@]4(O)[C@@H]3CC[C@]2(O)C[C@H]1OC(C)=O
- Activity (Human alphaherpesvirus 1 [10]): Active
- Activity (Human alphaherpesvirus 1 [11]): inactive
- AC50 [12]: Not Active

SMILES: CC[C@H](C)[C@@H]1NC(=O)[C@@H](NC(=O)[C@@H](CC(C)C)NC)[C@@H](C)OC(=O)[C@H](Cc2ccc(OC)cc2)N(C)C(=O)[C@@H]2CCCN2C(=O)[C@H](CC(C)C)NC(=O)[C@@H](C)C(O)[C@H](C(C)C)OC(=O)C[C@@H]1O (some centres undefined) [DIHYDRODIDEMNIN A]
- IC50 (L1210): 520 ng/mL (≈ 550 nM)

SMILES: CC[C@H](C)[C@@H]1NC(=O)[C@@H](NC(=O)[C@@H](CC(C)C)N(C)C(=O)[C@@H]2CCCN2C(=O)[C@H](C)OC(=O)[C@H](CCC(=O)O)NC(=O)[C@H](CCC(N)=O)NC(=O)[C@@H](N)CCC(N)=O)[C@@H](C)OC(=O)[C@H](Cc2ccc(OC)cc2)N(C)C(=O)[C@@H]2CCCN2C(=O)[C@H](CC(C)C)NC(=O)[C@@H](C)C(=O)[C@H](C(C)C)OC(=O)C[C@@H]1O [DIDEMNIN E]
- IC50 (L1210): 3 ng/mL (≈ 2 nM)

SMILES: CC[C@H](C)[C@@H]1NC(=O)[C@@H](NC(=O)[C@@H](CC(C)C)N(C)C(=O)[C@@H]2CCCN2C(=O)[C@H](C)OC(C)=O)[C@H](C)OC(=O)[C@H](Cc2ccc(OC)cc2)N(C)C(=O)[C@@H]2CCCN2C(=O)[C@H](CC(C)C)NC(=O)[C@@H](C)C(=O)[C@H](C(C)C)OC(=O)C[C@@H]1O [NORDIDEMNIN B]
- IC50 (L1210): 7.8 ng/mL (≈ 6.76 nM)

SMILES: CC(=O)O[C@@H]1C[C@@]2(O)CC[C@@H]3[C@H]([C@H](O)C(=O)[C@]4(C)[C@@H](c5ccc(=O)oc5)CC[C@]34O)[C@@]2(C)C[C@@H]1O
- Activity [4]: inactive
